In assay [1] the target is T1, PRMT5 (Homo sapiens, UniProt O14744).
T1 construct: purchased Viva (custom protein)
The experiment in a line: PRMT5 biochemical IC50 assay with SAM as cofactor. The note with it: PRMT5, SAM as cofactor; read-out: SAM IC50.

Assay [2] addresses T1, PRMT5. As to the kind of experiment: PRMT5 biochemical IC50 assay with no cofactor. The note with it: PRMT5, no cofactor; read-out: No Cofactor/rel IC50. The source says: Table 1 indicates IC50 values (μM) against PRMT5 for exemplary compounds in the presence of SAM as cofactor, with no cofactor, and with MTA as cofactor, respectively (columns 4-6). […] Ki values can be calculated from the IC50 values as described in the Examples section. As detailed in the Examples section, for the assay performed in the presence of SAM, IC50=Ki×1.5 (Ki=IC50/1.5).

The target in assay [3] is T1, PRMT5. The experiment in a line: PRMT5 biochemical IC50 assay with MTA as cofactor. The settings on record: PRMT5, MTA as cofactor; read-out: MTA IC50.
Assay [4] has as its system HAP1 MTAP-intact cell line. The experiment in a line: SDMA in-cell western assay, HAP1 MTAP-intact. Type of assay: cell-based. The note with it: Homo sapiens, HAP1, SDMA in-cell western, HAP1 MTAP-intact; read-out: MTAP HAP1 intact IC50. The method in brief: (§1)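 Readout: in-cell western detection of SDMA. Cells: HAP1 expressing endogenous MTAP and an MTAP-null HAP1 counterpart. Output: IC50.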

Assay [5] relates to HAP1 MTAP-deleted cell line. The experiment in a line: SDMA in-cell western assay, HAP1 MTAP-deleted. The note with it: for IC50: Homo sapiens, HAP1, SDMA in-cell western, HAP1 MTAP-deleted, read-out: HAP1 MTAP deleted IC50; for MTAP intact/deleted ratio: IC50 ratio HAP1 MTAP-intact / HAP1 MTAP-deleted, SDMA in-cell western. Type of assay: cell-based. The method in brief: as §1

The subject of assay [6] is HAP1 MTAP-deleted cell line. As to the kind of experiment: Viability assay, MTAP-deleted cell line. The assay is classed as cell-based. The settings on record: Homo sapiens, HAP1, viability assay, HAP1 MTAP-deleted; read-out: HAP1 MTAP deleted viability. The source says:
Table 1 additionally indicates IC50 values in a viability assay for the MTAP-deleted cell line (column 10), indicating the effect of treatment with compound on cell survival.

T1 sequence (O14744 whole entry): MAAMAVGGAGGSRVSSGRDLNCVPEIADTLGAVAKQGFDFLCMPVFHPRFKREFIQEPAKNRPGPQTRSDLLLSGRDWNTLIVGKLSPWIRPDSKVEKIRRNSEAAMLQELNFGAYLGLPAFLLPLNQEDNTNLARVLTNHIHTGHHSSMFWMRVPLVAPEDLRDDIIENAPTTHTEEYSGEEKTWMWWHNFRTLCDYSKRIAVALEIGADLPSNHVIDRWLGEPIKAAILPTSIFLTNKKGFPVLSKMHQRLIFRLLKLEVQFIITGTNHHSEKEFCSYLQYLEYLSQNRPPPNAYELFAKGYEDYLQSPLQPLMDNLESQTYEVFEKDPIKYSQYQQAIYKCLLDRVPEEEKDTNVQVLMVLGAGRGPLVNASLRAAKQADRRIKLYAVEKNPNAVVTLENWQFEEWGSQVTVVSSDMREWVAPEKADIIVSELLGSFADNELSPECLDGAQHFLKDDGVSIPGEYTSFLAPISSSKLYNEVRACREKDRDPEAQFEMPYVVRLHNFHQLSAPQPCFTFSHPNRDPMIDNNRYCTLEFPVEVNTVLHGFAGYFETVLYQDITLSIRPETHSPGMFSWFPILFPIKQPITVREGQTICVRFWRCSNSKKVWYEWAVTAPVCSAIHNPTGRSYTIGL
T1 sequence (Q9BQA1 whole entry partner): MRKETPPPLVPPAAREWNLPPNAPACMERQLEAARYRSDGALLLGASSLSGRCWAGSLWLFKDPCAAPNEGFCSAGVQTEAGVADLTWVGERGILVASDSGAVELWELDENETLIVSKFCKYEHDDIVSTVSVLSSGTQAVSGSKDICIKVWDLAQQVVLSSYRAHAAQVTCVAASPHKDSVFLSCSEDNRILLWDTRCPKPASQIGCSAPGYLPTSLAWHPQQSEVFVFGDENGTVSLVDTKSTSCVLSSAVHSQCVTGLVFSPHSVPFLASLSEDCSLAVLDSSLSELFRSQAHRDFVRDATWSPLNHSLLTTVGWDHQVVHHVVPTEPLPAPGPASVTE

Consider `CCc1cc(NC(=O)C(=O)N2C[C@@H](C)C(F)(F)C[C@@H]2c2ccc(F)c(F)c2)cnc1N` (single isomer, unassigned) [Compound 721], for which the IC50 was 50 to 500 nM at PRMT5 [1]; less than 50 nM at PRMT5 [2]; less than 50 nM at PRMT5 [3]; greater than 1000 nM in assay [4]; less than 100 nM in assay [5]; less than 1 µM in assay [6]. For the same compound, the MTAP intact/deleted ratio entry in assay [5] was “A (an IC50 ratio greater than or equal to 10 fold)”.
For the compound `CNS(=O)(=O)c1ccc([C@H]2CC[C@H](C)CN2C(=O)C(=O)Nc2cncc(C(N)=O)c2)cc1` (single isomer, unassigned) [Compound 722], the IC50 was 50 to 500 nM at PRMT5 [1]; 50 to 500 nM on PRMT5 [2]; less than 50 nM on PRMT5 [3]; greater than 1000 nM in assay [4]; greater than 1000 nM in assay [5]; greater than 10 µM in assay [6]. Also, the MTAP intact/deleted ratio result in assay [5] is given as “C (an IC50 ratio of less than 3 fold)”.
As to `C[C@H]1CC[C@H](c2ccc(S(N)(=O)=O)cc2)N(C(=O)C(=O)Nc2cncc(C(N)=O)c2)C1` (single isomer, unassigned) [Compound 724], the IC50 at PRMT5 [1] was greater than 500 nM; at PRMT5 [2] it was greater than 500 nM; on PRMT5 [3] it was greater than 500 nM; in assay [4] it was greater than 1000 nM; in assay [5], greater than 1000 nM; in assay [6], greater than 10 µM. Moreover, the MTAP intact/deleted ratio entry in assay [5] is reported as “C (an IC50 ratio of less than 3 fold)”.
As to `C[C@@H]1CC[C@@H](c2ccc(S(N)(=O)=O)cc2)N(C(=O)C(=O)Nc2cncc(C(N)=O)c2)C1` (single isomer, unassigned) [Compound 725], the IC50 is 50 to 500 nM on PRMT5 [1]; 50 to 500 nM at PRMT5 [2]; less than 50 nM on PRMT5 [3]; greater than 1000 nM in assay [4]; greater than 1000 nM in assay [5]; greater than 10 µM in assay [6]. The MTAP intact/deleted ratio entry in assay [5] is on record as “C (an IC50 ratio of less than 3 fold)”.
As to `Cc1ncc(NC(=O)C(=O)N2C[C@H](C)CC[C@H]2c2ccc3c(c2)CCC(=O)N3)cc1Cl` (single isomer, unassigned) [Compound 726], the IC50 at PRMT5 [1] is 50 to 500 nM; on PRMT5 [2], less than 50 nM; on PRMT5 [3] it was less than 50 nM; in assay [4], greater than 1000 nM; in assay [5] it was less than 100 nM; in assay [6], less than 1 µM. Besides, the MTAP intact/deleted ratio entry in assay [5] is reported as “A (an IC50 ratio greater than or equal to 10 fold)”.
Consider `Cc1ncc(NC(=O)C(=O)N2C[C@@H](C)CC[C@@H]2c2ccc3c(c2)CCC(=O)N3)cc1Cl` (single isomer, unassigned) [Compound 727], for which the IC50 at PRMT5 [1] is greater than 500 nM; on PRMT5 [2], greater than 500 nM; on PRMT5 [3], greater than 500 nM; in assay [4], greater than 1000 nM; in assay [5] it was greater than 1000 nM; in assay [6], greater than 10 µM. In assay [5], the MTAP intact/deleted ratio result is listed as “C (an IC50 ratio of less than 3 fold)”.
Turning to `CCc1cc(NC(=O)C(=O)N2C[C@H](C)C(F)(F)C[C@H]2c2ccc(F)c(F)c2)cnc1N` (single isomer, unassigned) [Compound 728], the IC50 was greater than 500 nM at PRMT5 [1]; greater than 500 nM on PRMT5 [2]; greater than 500 nM at PRMT5 [3]; greater than 1000 nM in assay [4]; greater than 1000 nM in assay [5]; greater than 10 µM in assay [6]. Further, the MTAP intact/deleted ratio result in assay [5] is recorded as “C (an IC50 ratio of less than 3 fold)”.
For the compound `CCc1cc(NC(=O)C(=O)N2C[C@@H](C)CC[C@@H]2c2ccc3c(c2)CCC(=O)N3)cnc1N` (single isomer, unassigned) [Compound 729], the IC50 was greater than 500 nM at PRMT5 [1]; greater than 500 nM at PRMT5 [2]; greater than 500 nM on PRMT5 [3]; greater than 1000 nM in assay [4]; 100 to 1000 nM in assay [5]; 1 to 10 µM in assay [6]. Moreover, the MTAP intact/deleted ratio entry in assay [5] is listed as “A (an IC50 ratio greater than or equal to 10 fold)”.

(Values after US11999727B2 (Tango Therapeutics, Inc., priority 2020, dated 2024).)
